{"source": "patent US20230303540A1", "about": "(Merck Sharp & Dohme LLC, priority 2020, published 2023)", "molecular_target": "GST-tagged truncated human mutant G2019S LRRK2 (Homo sapiens, UniProt Q5S007, G2019S)", "assay": "LRRK2 G2019S Km ATP LanthaScreen assay", "format": "biochemical", "conditions": "134 μM ATP (Km ATP), LRRKtide substrate, mean IC50 values; read-out: LRRK2 pIC50 (converted)", "how_it_was_run": "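LanthaScreen TR-FRET read with fluorescein-LRRKtide and 134 μM ATP (Km) in Tris pH 8.5/10 mM MgCl2 buffer. The enzyme was preincubated 15 min with compound at room temperature, and the reaction ran 90 min at ambient temperature. Stopped with EDTA plus Tb anti-phospho-LRRKtide antibody; the 520/495 nm ratio gave a 4-parameter logistic IC50, mean of several runs.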", "data": [{"smiles": "COCC12CC(n3cc(Nc4ncc5cc(Cl)c(N(C)C)cc5n4)cn3)(C1)C2", "note": "[Ex-3.18, 6-chloro-N-2-{1-[3-(methoxymethyl)bicyclo[1.1.1]pentan-1-yl]-1H-pyrazol-4-yl}-N-7-,N-7-dimethylquinazoline-2,7-diamine]", "values": [{"measurement": "IC50", "result": 1.95, "unit": "nM"}]}, {"smiles": "Cc1cc2cnc(Nc3cnn(C45CC(C4)C5)c3Cl)nc2cc1N1CCN(C2COCC2O)CC1", "note": "(single isomer, unassigned) [Ex-13.3, (3S,4S) or (3R, 4R)-4-(4-(2-((1-(bicyclo[1.1.1]pentan-1-yl)-5-chloro-1H-pyrazol-4-yl)amino)-6-methylquinazolin-7-yl)piperazin-1-yl)tetrahydrofuran-3-ol]", "values": [{"measurement": "IC50", "result": 6.98, "unit": "nM"}]}, {"smiles": "CC1(N2CCN(c3cc4nc(Nc5cnn(CC6CC6(F)F)c5)ncc4cc3Cl)CC2)COC1", "note": "(stereo not drawn) [Ex-4.70, 6-chloro-N-{1-[(2,2-difluorocyclopropyl)methyl]-1H-pyrazol-4-yl}-7-[4-(3-methyloxetan-3-yl)piperazin-1-yl]quinazolin-2-amine]", "values": [{"measurement": "IC50", "result": 4.93, "unit": "nM"}]}, {"smiles": "OC1COCC1N1CCN(c2cc3nc(Nc4cnn(C56CC(F)(C5)C6)c4Cl)ncc3cc2Cl)CC1", "note": "(single isomer, unassigned) [Ex-3.58, (3R,4R) or (3S,4S) 4-(4-(6-chloro-2-((5-chloro-1-(3-fluorobicyclo[1.1.1]pentan-1-y])-1H-pyrazol-4-yl)amino)quinazolin-7-yl)piperazin-1-yl) tetrahydrofuran-3-ol]", "values": [{"measurement": "IC50", "result": 0.44, "unit": "nM"}]}, {"smiles": "OC1COCC1N1CCN(c2cc3nc(Nc4cnn(C5CC5(F)F)c4Cl)ncc3cc2Cl)CC1", "note": "(single isomer, unassigned) [Ex-6.30, (3S,4S) or (3R,4R) 4-[4-(6-chloro-2-{[5-chloro-1-(2,2-(R) or (S)difluorocyclopropyl)-1H-pyrazol-4-yl]amino}quinazolin-7-yl)piperazin-1-yl]oxolan-3-ol]", "values": [{"measurement": "IC50", "result": 0.9, "unit": "nM"}]}, {"smiles": "Cc1c(Nc2ncc3cc(Cl)c(N4CCN(C5COCC5O)CC4)nc3n2)cnn1C1CC1", "note": "(single isomer, unassigned) [Ex-16.3, (3S,4S) or (3R,4R)-4-(4-{6-chloro-2-[(1-cyclopropyl-5-methyl-1H-pyrazol-4-yl)amino]pyrido[2,3-d]pyrimidin-7-yl}piperazin-1-yl)oxolan-3-ol]", "values": [{"measurement": "IC50", "result": 4.55, "unit": "nM"}]}, {"smiles": "Clc1cc2cnc(Nc3cnn(C4CC4)c3Cl)nc2cc1N1CCn2cnnc2C1", "note": "[Ex-1.26, 6-chloro-N-(5-chloro-1-cyclopropyl-1H-pyrazol-4-yl)-7-(5,6-dihydro[1,2,4]triazolo[4,3-a]pyrazin-7(8H)-yl)quinazolin-2-amine]", "values": [{"measurement": "IC50", "result": 1.49, "unit": "nM"}]}, {"smiles": "CC1(N2CCN(c3cc4nc(Nc5cnn(CC(F)F)c5)ncc4cc3Cl)CC2)COC1", "note": "[Ex-6.1, 6-chloro-N-(1-(2,2-difluoroethyl)-1H-pyrazol-4-yl)-7-(4-(3-methyloxetan-3-yl)piperazin-1-yl)quinazolin-2-amine]", "values": [{"measurement": "IC50", "result": 5.68, "unit": "nM"}]}, {"smiles": "Cc1cc(Nc2ncc3cc(Cl)c(N4CCC(C)(O)CC4)cc3n2)sn1", "note": "[Ex-6.8, 1-{6-chloro-2-[(3-methyl-1,2-thiazol-5-yl)amino]quinazolin-7-yl}-4-methylpiperidin-4-ol]", "values": [{"measurement": "IC50", "result": 16.3, "unit": "nM"}]}, {"smiles": "CC1(N2CCN(c3cc4nc(Nc5cnn(C6CC6(F)F)c5Cl)ncc4cc3Cl)CC2)COCC1O", "note": "(single isomer, unassigned) [Ex-6.33, (3S,4S) or (3R,4R) 4-[4-(6-chloro-2-{[5-chloro-1-(2,2-(R) or (S)difluorocyclopropyl)-1H-pyrazol-4-yl]amino}quinazolin-7-yl)piperazin-1-yl]-4-methyloxolan-3-ol]", "values": [{"measurement": "IC50", "result": 0.212, "unit": "nM"}]}, {"smiles": "Cn1nc(Cl)cc1Nc1ncc2cc(Cl)c(N3CCN([C@@]4(C)COC[C@H]4O)CC3)cc2n1", "note": "(single isomer, unassigned)", "values": [{"measurement": "IC50", "result": 5.97, "unit": "nM"}]}, {"smiles": "CC1(O)CCN(c2cc3nc(Nc4cnn(C5(C)CC5)c4Cl)ncc3cc2Cl)CC1", "note": "[Ex-4.34, 1-(6-chloro-2-{[5-chloro-1-(1-methylcyclopropyl)-1H-pyrazol-4-yl]amino}quinazolin-7-yl)-4-methylpiperidin-4-ol]", "values": [{"measurement": "IC50", "result": 0.625, "unit": "nM"}]}]}
